Reference: US20110092445A1, “Amyloid ß peptide analogues, oligomers thereof, processes for preparing and composi-tions comprising said analogues or oligomers, and their uses” (Abbott Laboratories, priority 2008, published 2011)
Bridges are numbered along the chain shown (N, C = ends). Where no end group is shown, it is not given here.

Experiments:
[1] = tested on: polyclonal rabbit serum 5599; experiment: Dot blot analysis with rabbit polyclonal antibody 5599; type: binding; details: FIG. 8B; serum shows high general background
Excerpt: (§1) 1. (14C, 37C) N-Met Aβ(1-42) oligomer of example 4a 2. Thermolysin truncated (14C, 37C) N-Met Aβ(1-42) oligomer of example 5a 3. (15C, 36C) N-Met Aβ(1-42) oligomer of example 4b 4. Thermolysin truncated (15C, 36C) N-Met Aβ(1-42) oligomer of example 5b 5. (16C, 35C) N-Met Aβ(1-42) oligomer of example 4c 6. Thermolysin truncated (16C, 35C) N-Met Aβ(1-42) oligomer of example 5c 7. (17C, 34C) N-Met Aβ(1-42) oligomer of example 4d 8) Thermolysin truncated (17C, 34C) N-Met Aβ(1-42) oligomer of example 5d 9. (18C, 33C) N-Met Aβ(1-42) oligomer of example 4e 10. Thermolysin truncated (18C, 33C) N-Met Aβ(1-42) oligomer of example 5e 11. (19C, 32C) N-Met Aβ(1-42) oligomer of example 4f 12. Thermolysin truncated (19C, 32C) N-Met Aβ(1-42) oligomer of example 5f 13. (20C, 31C) N-Met Aβ(1-42) oligomer of example 4g 14. Thermolysin truncated (20C, 31C) N-Met Aβ(1-42) oligomer of example 5g 15. (21C, 30C) N-Met Aβ(1-42) oligomer of example 4h 16. Thermolysin truncated (21C, 30C) N-Met Aβ(1-42) oligomer of example 5h 17. (22C, 29C) N-Met Aβ(1-42) oligomer of example 4i 18. Thermolysin truncated (22C, 29C) N-Met Aβ(1-42) oligomer of example 5i 19. Aβ(1-42) globulomer of example 4j 20. Aβ(1-42) thermolysin truncated globulomer of example 5j
(§2) • Serial dilution of Aβ antigens in columns 1-20 in 20 mM NaH2PO4, 140 mM NaCl, pH 7.4+0.2 mg/ml BSA • 1) 10 pmol/μl • 2) 1 pmol/μl • 3) 0.1 pmol/μl • 4) 0.01 pmol/μl • 5) 0.001 pmol/μl
(§3) • TBS • 25 mM Tris/HCl-buffer pH 7.5 • +150 mM NaCl • TTBS • 25 mM Tris/HCl-buffer pH 7.5 • +150 mM NaCl • +0.05% Tween 20 • PBS+0.2 mg/ml BSA • 20 mM NaH2PO4 buffer pH 7.4 • +140 mM NaCl • +0.2 mg/ml BSA
(§4) • Either Rabbit sera samples or mouse monoclonal antibodies were used as Antibody solution I and prepared as in the following: • Rabbit sera samples (1:200 diluted in 20 ml 1% low fat milk in TBS) • Mouse monoclonal antibodies (diluted to 0.2 μg/ml in 20 ml 1% low fat milk in TBS)
(§5) • In the case Antibody solution I was Rabbit sera samples then Antibody solution II was Anti-Rabbit-AP. […]

[2] = tested on: Aβ globulomer-specific antibody 7C6; experiment: Dot blot analysis with monoclonal antibody 7C6; type: binding, murine; details: FIG. 8A
Excerpt: as §1, §2, §3, §4, §5

[3] = tested on: Aβ globulomer epitope specific antibody 10F11; experiment: Immunoprecipitation with 10F11-Dynabeads and SELDI-MS detection; type: binding, murine; details: FIG. 10A/10B; isotype controls IgG2a, IgG2b
Description: (§6) A: Activation of Dynabeads with Monoclonal Mouse Antibodies • The stock-suspension of dynabeads (Dynabeads M-280 Sheep anti-Mouse IgG, Invitrogen; Cat. no.: 112.02) was shaken carefully to prevent foaming. • 1 mL was aseptically removed and transferred to a 1.5 mL reaction vial. • The dynabeads were washed 3 times 5 min with 1 mL immunoprecipitation (IP)-wash buffer (IP-wash-buffer: PBS (20 mM NaH2PO4, 140 mM NaCl, pH 7.4), 0.1% BSA). During the washing procedure the supernatant was carefully removed while the dynabeads were immobilized at the side of the reaction vial with a magnetic separator stand (MSS). • The washed dynabeads were incubated with 40 μg Aβ antibody in 1 mL PBS, 0.1% BSA • The activation was carried out by overnight incubation under shaking at 4° C. • The activated dynabeads were washed 4 times 30 min (again using the MSS) with 1 mL IP-wash buffer (PBS (20 mM NaH2PO4, 140 mM NaCl, pH 7.4), 0.1% BSA). • The activated dynabeads were resuspended with 1 mL PBS, 0.1% BSA, 0.02% NaAzide; vortexed and centrifuged briefly. • The antibody activated dynabeads were stored at 4° C. until further use. […]

[4] = tested on: Aβ globulomer epitope specific antibody 7C6; experiment: Immunoprecipitation with 7C6-Dynabeads and SELDI-MS detection; type: binding, murine
Description: as §6

[5] = tested on: Alzheimer Disease transgenic mice; details: active immunization, cited from earlier work

| Substance | recognition by polyclonal rabbit serum 5599 in dot blot [1] | recognition by Aβ globulomer-specific antibody 7C6 in dot blot [2] | also measured |
| --- | --- | --- | --- |
| Thermolysin truncation of disulfide-stabilized (15C, 36C) N-Met Aβ(1-42) oligomer [example 5b] | recognized by the polyclonal rabbit serum 5599 | only recognized by the polyclonal rabbit serum 5599 | – |
| Aβ(1-42) globulomer [example 4j] | do not detect | do not detect | – |
| Disulfide-stabilized (17C, 34C) ARO 6-35)-amide oligomer (KCVFFAEDVGSNKGAIIGCM-NH2; disulfide 2-19; also: oligomer; UniProt P05067 687-706, looked up, variant L17C L34C) [example 4p] | – | – | recognition by 10F11 (immunoprecipitation, SELDI-MS) [3]: recognized; recognition by 7C6 (immunoprecipitation, SELDI-MS) ([4]; FIG. 10A/10B, isotype controls IgG2a, IgG2b): recognized; presence of the Aβ globulomer epitope (conclusion from immunoprecipitation) ([4]; immunoprecipitation with 7C6 and 10F11): contained the Aβ globulomer epitope |
| Thermolysin truncation of Aβ(1-42) globulomer [example 5j] | comparable recognition | comparable recognition | – |
| Aβ(20-42) truncated globulomer: obtained by subjecting an Aβ(1-42) globulomer to thermolysin proteolysis (FAEDVGSNKGAIIGLMVGGVVIA; also: truncated globulomer) | – | – | reversal of deficits in novel object recognition task ([5]; AD transgenic mouse models): proven to reverse deficits in novel object recognition task; reversing cognitive defects in Alzheimer Disease transgenic mice [5]: effective in reversing cognitive defects |
